Measured values from patent publication US20250127743A1, “USE OF BRANCHED CHAIN FATTY ACIDS (BCFAS) FOR THE TREATMENT OF INTESTINAL INFLAMMATION” (priority 2021, published 2025).
Read-outs that look alike come from different tables or passages of the source. One block for each compound: values may come before it.

Legend:
[1] = test system: proteins conjugated to SUMO2/3 in CACO2 cells; assay: Immunoblot quantification of SUMO2/3-conjugated proteins (above 50 kDa) in CACO2 cells; assay type: cell-based
Protocol: CACO2 and HeLa cells were cultivated in Minimum Essential Medium (MEM) (Eurobio) supplemented with 2 mM L-Glutamine (Invitrogen), 10% Fetal Bovine Serum (FBS, Eurobio), non-essential aminoacids (Sigma), 1 mM sodium pyruvate (Gibco) and a mixture of penicillin (10000 U/mL) and streptomycin (10 mg/mL). […] CACO2 and T84 cells were seeded in wells at a density of 1.1×10^5 cells/cm^2 and 1.7×10^5 cells/cm^2, respectively, the day before incubation with BCFAs or SCFAs.
(§1) Before treatments, cell culture medium was replaced by HBSS (Hanks' Balanced Salt Solution; Sigma). Cells were then treated as indicated in the text and directly lysed with Laemmli buffer. For BCFAs and SCFAs treatments, 100 mM stock solutions in water were first prepared from the corresponding acidic form (e.g. isobutyric acid) or from the sodium salt of the corresponding basic form (e.g. sodium isobutyrate) and then further diluted in cell culture media (HBSS). When needed, the pH of cell culture medium was set using either 0.1 M NaOH or 0.1 M HCl solution. […] For TNFα treatments, CACO2 cells were first incubated with BCFAs or SCFAs for 1 hour and then incubated with 100 ng/mL recombinant human TNFα (PeproTech). For immunoblotting and qRT-PCR analyses, cells were lysed after 30 min or 1h of incubation with TNFα, respectively. For Transepithelial electrical resistance (TEER) measurements, cells were incubated for 24 h with TNFα. Viability of cells incubated with HBSS at various pH or with BCFAs was assessed using the CellTiter-Glo® luminescent cell viability assay (Promega), according to the manufacturer's protocol.
(§2) Cell lysates and protein extracts from intestinal tissues in Laemmli buffer were boiled for 5 min, sonicated and protein content was resolved using SDS-polyacrylamide gel electrophoresis. Proteins were then transferred on PVDF membranes (GE Healthcare) and detected after incubation with specific antibodies using ECL Clarity Western blotting Substrate (BioRad). […] Quantifications of proteins were performed on a ChemiDoc Imaging System (Bio-rad). SUMO2/3-conjugated proteins levels (above 50 kDa), SUMO1-conjugated protein levels (above 50 kDa), and other specific protein levels were normalized either by the level of total proteins above 50 kDa (determined using the TGX-stain free imaging technology; Bio-rad) or by the level of actin in each lysate.

IκBα = assay: Immunoblot of IκBα levels in TNFα-stimulated CACO2 cells; assay type: cell-based; settings: 1 hour pre-incubation with 5 mM, then 30 min 100 ng/mL TNFα
Protocol: as §1, §2

CACO2 cells = assay: Luminol-based ROS detection assay in CACO2 cells; assay type: cell-based
Protocol: Luminol was dissolved in NaOH 0.1 M to obtain a 50 mM stock solution. A stock solution of 1000 U/mL HRP (HorseRadish Peroxidase) was prepared in parallel in PBS (Phosphate-Buffered Saline). After treatment with BCFAs or SCFAs or incubation in HBSS at pH 5.2, CACO2 and HeLa culture media were collected and centrifugated for 5 min at 13,000×g at room temperature. The pH of these culture media was then buffered to 7.5 to avoid pH-dependent interferences with luminol activity. Luminol (1 mM final concentration) and HRP (4 U/mL) were finally added to each culture media and luminescence was quantified immediately on a luminometer (Tecan).

[2] = pH and acid/base forms of BCFA in HBSS medium; assay type: physicochemical; settings: 5 mM added to HBSS medium
Protocol: as §1
BCFAs are weak organic acids, which exist in solution either as acidic (R—COOH) or basic (R—COO^−) forms.

DSS-treated mice [3] = assay: Colonic permeability (Lucifer yellow flux, Ussing chambers) in DSS mouse model of colitis; assay type: in vivo; settings: 2% DSS in drinking water 7 days, 150 mM in drinking water, three days after the end of DSS
Protocol: Eight-weeks-old C57Bl/6JRj male mice (Janvier Labs, Le-Genest-Saint-Isle, France) were housed at 23° C. (5 animals/cage) with a 12-h light-dark cycle in regular open cages. All animals were fed with a non-sterilized standard rodent diet (3430.PM.S10, Serlab, France). Drinking water was not sterilized. Animals were acclimatized to the animal facility for 1 week before experimentations. To monitor the effect of BCFAs on chemically-induced intestinal inflammation, animals were split in three groups (8 animals/group): one group had no treatment, one group was treated with DSS (Dextran Sulfate Sodium, MB Biomedicals, France; 2% in drinking water) from D4 to D11 to induce colitis and one group was treated both with sodium isobutyrate (150 mM in drinking water, pH 7.4; from DO to D13) and DSS (D4 to D11). Colon samples were cut along the mesenteric border. Colonic permeability was assessed by measuring Lucifer yellow (440 Da; Sigma-aldrich) fluxes in Ussing chambers with an exchange surface of 0.07 cm2 (Harvard Apparatus, Holliston, MA). Lucifer yellow (250 μg/ml) was added to the mucosal side. After 3 h at 37° C., medium from the serosal side was removed and the fluorescence level of Lucifer yellow (excitation: 428 nm; emission: 540 nm) was quantified.

DSS-treated mice [4] = assay: Fecal calprotectin in DSS mouse model of colitis; assay type: in vivo; settings: 2% DSS in drinking water 7 days, 150 mM in drinking water, 3 days after the end of DSS
Protocol: Eight-weeks-old C57Bl/6JRj male mice (Janvier Labs, Le-Genest-Saint-Isle, France) were housed at 23° C. (5 animals/cage) with a 12-h light-dark cycle in regular open cages. All animals were fed with a non-sterilized standard rodent diet (3430.PM.S10, Serlab, France). Drinking water was not sterilized. Animals were acclimatized to the animal facility for 1 week before experimentations. To monitor the effect of BCFAs on chemically-induced intestinal inflammation, animals were split in three groups (8 animals/group): one group had no treatment, one group was treated with DSS (Dextran Sulfate Sodium, MB Biomedicals, France; 2% in drinking water) from D4 to D11 to induce colitis and one group was treated both with sodium isobutyrate (150 mM in drinking water, pH 7.4; from DO to D13) and DSS (D4 to D11). Fecal pellets were weighted and resuspended in 600 μL of PBS with 1% protease and phosphatase inhibitors (Sigma-Aldrich, USA). After a centrifugation step (12000×g, 15 min, 4° C.), calprotectin was quantified in the obtained supernatants using the S100A8 DuoSet® kit (R&D Systems, Minneapolis), according to the manufacturer's protocol.

[5] = CACO2 cells, pH~7.5, 5 mM final concentration

Structure (SMILES): CCC(=O)O [propionic acid]
level of SUMO2/3-conjugated proteins ([1]; CACO2 cells, 5h, pH~5.2, 5 mM final concentration): significant increase

Structure (SMILES): CC(=O)[O-].[Na+] [sodium acetate]
SUMOylation pattern [1]: does not trigger any changes

Structure (SMILES): CCCC(=O)[O-].[Na+] [sodium butyrate, reference compound]
TNFα-triggered degradation of IκBα (IκBα): not observed
ROS detection after incubation with sodium salts (basic forms) (CACO2 cells): no ROS were detected
SUMOylation pattern [1, 5]: does not trigger any changes

concentration present as isobutyrate [2]: ~4990 µM
concentration present as isobutyric acid [2]: ~10 µM
pH of HBSS medium after addition [2]: ~7.5
proportion present as isobutyrate [2]: ~99.8%
proportion present as isobutyric acid [2]: ~0.2%
Structure (SMILES): CC(C)C(=O)[O-].[Na+] [sodium isobutyrate]
TNFα-triggered degradation of IκBα (IκBα): not observed
ROS detection after incubation with sodium salts (basic forms) (CACO2 cells): no ROS were detected
DSS-induced colonic hyperpermeability (DSS-treated mice [3]): significantly decreases
level of fecal calprotectin (DSS-treated mice [4]): significantly decreases

Structure (SMILES): CCC(=O)[O-].[Na+] [sodium propionate]
SUMOylation pattern [1, 5]: does not trigger any changes
